# Results: PubChem BioAssay (NCI)
#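 Briefly, cells in 96-well plates were exposed to five compound concentrations for 48 h, and endpoints were estimated by linear interpolation. At the GI50, growth is halved. TGI denotes the concentration required for complete inhibition of growth.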
# Legend:
# Assay in all cases: NCI anticancer screen, dose series, 48 h
# 786-0 renal = tested on: 786-0 renal
# A498 renal = tested on: A498 renal
# A549 NSCLC = tested on: A549 NSCLC
# ACHN renal = tested on: ACHN renal
# BT-549 breast = tested on: BT-549 breast
# CAKI-1 renal = tested on: CAKI-1 renal
# CCRF-CEM leukemia = tested on: CCRF-CEM leukemia
# COLO 205 colon = tested on: COLO 205 colon
# DU-145 prostate = tested on: DU-145 prostate
# EKVX NSCLC = tested on: EKVX NSCLC
# HCC-2998 colon = tested on: HCC-2998 colon
# HCT-116 colon = tested on: HCT-116 colon
# HCT-15 colon = tested on: HCT-15 colon
# HL-60(TB) leukemia = tested on: HL-60(TB) leukemia
# HOP-62 NSCLC = tested on: HOP-62 NSCLC
# HOP-92 NSCLC = tested on: HOP-92 NSCLC
# HT29 colon = tested on: HT29 colon
# IGROV1 ovarian = tested on: IGROV1 ovarian
# M14 melanoma = tested on: M14 melanoma
# MALME-3M melanoma = tested on: MALME-3M melanoma
# MCF7 breast = tested on: MCF7 breast
# MDA-MB-435 = tested on: MDA-MB-435
# MDA-N = tested on: MDA-N
# MOLT-4 leukemia = tested on: MOLT-4 leukemia
# NCI-H23 lung = tested on: NCI-H23 lung
# NCI-H460 lung = tested on: NCI-H460 lung
# NCI-H522 lung = tested on: NCI-H522 lung
# OVCAR-4 ovarian = tested on: OVCAR-4 ovarian
# OVCAR-5 ovarian = tested on: OVCAR-5 ovarian
# OVCAR-8 ovarian = tested on: OVCAR-8 ovarian
# PC-3 prostate = tested on: PC-3 prostate
# RPMI-8226 leukemia = tested on: RPMI-8226 leukemia
# RXF 393 renal = tested on: RXF 393 renal
# SF-268 CNS = tested on: SF-268 CNS
# SF-539 CNS = tested on: SF-539 CNS
# SK-MEL-28 melanoma = tested on: SK-MEL-28 melanoma
# SK-MEL-5 melanoma = tested on: SK-MEL-5 melanoma
# SK-OV-3 ovarian = tested on: SK-OV-3 ovarian
# SN12C renal = tested on: SN12C renal
# SNB-19 CNS = tested on: SNB-19 CNS
# SNB-75 CNS = tested on: SNB-75 CNS
# SR leukemia = tested on: SR leukemia
# SW-620 colon = tested on: SW-620 colon
# TK-10 renal = tested on: TK-10 renal
# U251 CNS = tested on: U251 CNS
# UACC-257 melanoma = tested on: UACC-257 melanoma
# UACC-62 melanoma = tested on: UACC-62 melanoma
# UO-31 renal = tested on: UO-31 renal
# HS 578T breast = tested on: HS 578T breast
# KM12 colon = tested on: KM12 colon
# LOX IMVI melanoma = tested on: LOX IMVI melanoma
# MDA-MB-231 breast = tested on: MDA-MB-231 breast
# NCI-H226 lung = tested on: NCI-H226 lung
# NCI/ADR-RES ovarian = tested on: NCI/ADR-RES ovarian
# OVCAR-3 ovarian = tested on: OVCAR-3 ovarian
# SF-295 CNS = tested on: SF-295 CNS
# T-47D breast = tested on: T-47D breast
# K-562 leukemia = tested on: K-562 leukemia
# SK-MEL-2 melanoma = tested on: SK-MEL-2 melanoma
compound,measurement,setting,value
COCOc1ccc(C(=O)C(C)c2ccc(OCOC)cc2OCOC)c(O)c1 (stereo unspecified),TGI,786-0 renal,> 100 µM
same,TGI,A498 renal,> 100 µM
same,TGI,A549 NSCLC,> 100 µM
same,TGI,ACHN renal,> 100 µM
same,TGI,BT-549 breast,> 100 µM
same,TGI,CAKI-1 renal,> 100 µM
same,TGI,CCRF-CEM leukemia,> 100 µM
same,TGI,COLO 205 colon,> 100 µM
same,TGI,DU-145 prostate,> 100 µM
same,TGI,EKVX NSCLC,> 100 µM
same,TGI,HCC-2998 colon,> 100 µM
same,TGI,HCT-116 colon,> 100 µM
same,TGI,HCT-15 colon,> 100 µM
same,TGI,HL-60(TB) leukemia,> 100 µM
same,TGI,HOP-62 NSCLC,> 100 µM
same,TGI,HOP-92 NSCLC,> 100 µM
same,TGI,HT29 colon,> 100 µM
same,TGI,IGROV1 ovarian,> 100 µM
same,TGI,M14 melanoma,> 100 µM
same,TGI,MALME-3M melanoma,> 100 µM
same,TGI,MCF7 breast,> 100 µM
same,TGI,MDA-MB-435,> 100 µM
same,TGI,MDA-N,> 100 µM
same,TGI,MOLT-4 leukemia,> 100 µM
same,TGI,NCI-H23 lung,> 100 µM
same,TGI,NCI-H460 lung,> 100 µM
same,TGI,NCI-H522 lung,> 100 µM
same,TGI,OVCAR-4 ovarian,> 100 µM
same,TGI,OVCAR-5 ovarian,> 100 µM
same,TGI,OVCAR-8 ovarian,> 100 µM
same,TGI,PC-3 prostate,> 100 µM
same,TGI,RPMI-8226 leukemia,> 100 µM
same,TGI,RXF 393 renal,> 100 µM
same,TGI,SF-268 CNS,> 100 µM
same,TGI,SF-539 CNS,> 100 µM
same,TGI,SK-MEL-28 melanoma,> 100 µM
same,TGI,SK-MEL-5 melanoma,> 100 µM
same,TGI,SK-OV-3 ovarian,> 100 µM
same,TGI,SN12C renal,> 100 µM
same,TGI,SNB-19 CNS,> 100 µM
same,TGI,SNB-75 CNS,> 100 µM
same,TGI,SR leukemia,> 100 µM
same,TGI,SW-620 colon,> 100 µM
same,TGI,TK-10 renal,> 100 µM
same,TGI,U251 CNS,> 100 µM
same,TGI,UACC-257 melanoma,> 100 µM
same,TGI,UACC-62 melanoma,> 100 µM
same,TGI,UO-31 renal,> 100 µM
COc1cccc([C@H]2CC(=O)c3cc4c(cc3N2)OCO4)c1,GI50,786-0 renal,0.0789 µM
same,TGI,786-0 renal,> 100 µM
same,GI50,A498 renal,0.265 µM
same,TGI,A498 renal,> 100 µM
same,GI50,A549 NSCLC,0.125 µM
same,TGI,A549 NSCLC,> 100 µM
same,GI50,ACHN renal,0.0763 µM
same,TGI,ACHN renal,> 100 µM
same,GI50,CAKI-1 renal,0.151 µM
same,TGI,CAKI-1 renal,> 100 µM
same,GI50,CCRF-CEM leukemia,0.0586 µM
same,TGI,CCRF-CEM leukemia,> 100 µM
same,GI50,COLO 205 colon,0.0367 µM
same,TGI,COLO 205 colon,1.22 µM
same,GI50,DU-145 prostate,0.067 µM
same,TGI,DU-145 prostate,13.8 µM
same,GI50,HCC-2998 colon,0.0283 µM
same,TGI,HCC-2998 colon,0.115 µM
same,GI50,HCT-116 colon,0.0604 µM
same,TGI,HCT-116 colon,> 100 µM
same,GI50,HCT-15 colon,0.0434 µM
same,TGI,HCT-15 colon,> 100 µM
same,GI50,HOP-62 NSCLC,2.56 µM
same,TGI,HOP-62 NSCLC,> 100 µM
same,TGI,HOP-92 NSCLC,> 100 µM
same,TGI,HS 578T breast,83.3 µM
same,TGI,HT29 colon,0.425 µM
same,GI50,KM12 colon,0.0336 µM
same,TGI,KM12 colon,1.25 µM
same,GI50,LOX IMVI melanoma,0.273 µM
same,TGI,LOX IMVI melanoma,> 100 µM
same,GI50,M14 melanoma,0.0864 µM
same,GI50,MCF7 breast,0.0568 µM
same,TGI,MCF7 breast,> 100 µM
same,GI50,MDA-MB-231 breast,0.716 µM
same,TGI,MDA-MB-231 breast,> 100 µM
same,GI50,MDA-MB-435,0.0177 µM
same,TGI,MDA-MB-435,0.044 µM
same,GI50,MDA-N,0.0287 µM
same,GI50,MOLT-4 leukemia,0.0316 µM
same,TGI,MOLT-4 leukemia,0.0821 µM
same,GI50,NCI-H226 lung,0.226 µM
same,TGI,NCI-H226 lung,> 100 µM
same,TGI,NCI-H522 lung,0.698 µM
same,GI50,NCI/ADR-RES ovarian,0.036 µM
same,GI50,OVCAR-3 ovarian,0.0415 µM
same,TGI,OVCAR-3 ovarian,> 100 µM
same,TGI,OVCAR-4 ovarian,> 100 µM
same,GI50,OVCAR-5 ovarian,13.7 µM
same,GI50,PC-3 prostate,0.0927 µM
same,TGI,PC-3 prostate,> 100 µM
same,GI50,RPMI-8226 leukemia,0.0608 µM
same,TGI,RPMI-8226 leukemia,1.01 µM
same,TGI,RXF 393 renal,0.713 µM
same,GI50,SF-268 CNS,4.7 µM
same,TGI,SF-268 CNS,> 100 µM
same,GI50,SF-295 CNS,0.0958 µM
same,TGI,SF-295 CNS,> 100 µM
same,GI50,SF-539 CNS,0.084 µM
same,TGI,SK-MEL-28 melanoma,> 100 µM
same,GI50,SK-MEL-5 melanoma,0.0271 µM
same,TGI,SK-MEL-5 melanoma,0.226 µM
same,GI50,SK-OV-3 ovarian,0.556 µM
same,TGI,SK-OV-3 ovarian,> 100 µM
same,GI50,SN12C renal,0.161 µM
same,TGI,SN12C renal,> 100 µM
same,TGI,SNB-19 CNS,1.81 µM
same,TGI,SNB-75 CNS,> 100 µM
same,GI50,SW-620 colon,0.0676 µM
same,TGI,SW-620 colon,> 100 µM
same,TGI,T-47D breast,> 100 µM
same,TGI,TK-10 renal,> 100 µM
same,GI50,U251 CNS,0.0491 µM
same,TGI,U251 CNS,> 100 µM
same,GI50,UACC-257 melanoma,0.0414 µM
same,TGI,UACC-257 melanoma,> 100 µM
same,GI50,UACC-62 melanoma,0.0226 µM
same,TGI,UACC-62 melanoma,0.0965 µM
same,GI50,UO-31 renal,0.223 µM
same,TGI,UO-31 renal,> 100 µM
O=C(COc1ccc(OCC(=O)N2C(=O)CC(=O)N(c3ccccc3)C2=S)cc1)N1C(=O)CC(=O)N(c2ccccc2)C1=S,TGI,786-0 renal,> 100 µM
same,TGI,A498 renal,> 100 µM
same,TGI,A549 NSCLC,> 100 µM
same,TGI,ACHN renal,> 100 µM
same,TGI,BT-549 breast,> 100 µM
same,TGI,CAKI-1 renal,> 100 µM
same,TGI,COLO 205 colon,> 100 µM
same,TGI,DU-145 prostate,> 100 µM
same,TGI,EKVX NSCLC,> 100 µM
same,TGI,HCC-2998 colon,> 100 µM
same,TGI,HCT-116 colon,60.1 µM
same,TGI,HCT-15 colon,> 100 µM
same,TGI,HOP-92 NSCLC,> 100 µM
same,TGI,HT29 colon,> 100 µM
same,TGI,IGROV1 ovarian,> 100 µM
same,TGI,K-562 leukemia,> 100 µM
same,TGI,KM12 colon,> 100 µM
same,TGI,M14 melanoma,> 100 µM
same,TGI,MALME-3M melanoma,> 100 µM
same,TGI,MCF7 breast,> 100 µM
same,TGI,MDA-MB-231 breast,> 100 µM
same,TGI,MDA-MB-435,> 100 µM
same,TGI,MDA-N,> 100 µM
same,TGI,MOLT-4 leukemia,> 100 µM
same,TGI,NCI-H226 lung,> 100 µM
same,TGI,NCI-H23 lung,> 100 µM
same,TGI,NCI-H460 lung,> 100 µM
same,TGI,NCI-H522 lung,> 100 µM
same,TGI,NCI/ADR-RES ovarian,> 100 µM
same,TGI,OVCAR-4 ovarian,> 100 µM
same,TGI,OVCAR-5 ovarian,> 100 µM
same,TGI,PC-3 prostate,> 100 µM
same,TGI,RPMI-8226 leukemia,> 100 µM
same,TGI,RXF 393 renal,95 µM
same,TGI,SF-268 CNS,> 100 µM
same,TGI,SF-295 CNS,> 100 µM
same,TGI,SK-MEL-2 melanoma,> 100 µM
same,TGI,SK-MEL-28 melanoma,> 100 µM
same,TGI,SK-OV-3 ovarian,> 100 µM
same,TGI,SN12C renal,> 100 µM
same,TGI,SNB-19 CNS,> 100 µM
same,TGI,SNB-75 CNS,> 100 µM
same,TGI,SW-620 colon,> 100 µM
same,TGI,TK-10 renal,> 100 µM
same,TGI,U251 CNS,> 100 µM
same,TGI,UACC-257 melanoma,> 100 µM
same,TGI,UACC-62 melanoma,> 100 µM
same,TGI,UO-31 renal,> 100 µM
